According to PubChem BioAssay (NCI):
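Step 1: Grow cells in 96-well plates. Step 2: Expose to compound for 48 hours at 5 concentrations. Step 3: Interpolate endpoints linearly; if unreached, use highest concentration. Abbreviation: GI50, concentration required for 50% inhibition of growth. At the TGI there is no net growth.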

How the values were obtained:
Assay in all cases: NCI tumour cell line growth inhibition, 48 h
MCF7 breast = tested on: MCF7 breast
HCT-116 colon = tested on: HCT-116 colon
HCC-2998 colon = tested on: HCC-2998 colon
SF-539 CNS = tested on: SF-539 CNS
NCI/ADR-RES ovarian = tested on: NCI/ADR-RES ovarian
OVCAR-5 ovarian = tested on: OVCAR-5 ovarian
SNB-75 CNS = tested on: SNB-75 CNS
SF-295 CNS = tested on: SF-295 CNS
NCI-H23 lung = tested on: NCI-H23 lung
RXF 393 renal = tested on: RXF 393 renal
RPMI-8226 leukemia = tested on: RPMI-8226 leukemia
LOX IMVI melanoma = tested on: LOX IMVI melanoma
786-0 renal = tested on: 786-0 renal
SK-MEL-5 melanoma = tested on: SK-MEL-5 melanoma
CAKI-1 renal = tested on: CAKI-1 renal
IGROV1 ovarian = tested on: IGROV1 ovarian
SW-620 colon = tested on: SW-620 colon
MALME-3M melanoma = tested on: MALME-3M melanoma
UO-31 renal = tested on: UO-31 renal
U251 CNS = tested on: U251 CNS
MDA-MB-231 breast = tested on: MDA-MB-231 breast
NCI-H522 lung = tested on: NCI-H522 lung
A498 renal = tested on: A498 renal
HCT-15 colon = tested on: HCT-15 colon
NCI-H226 lung = tested on: NCI-H226 lung
SK-MEL-28 melanoma = tested on: SK-MEL-28 melanoma
T-47D breast = tested on: T-47D breast
SNB-19 CNS = tested on: SNB-19 CNS
KM12 colon = tested on: KM12 colon
HS 578T breast = tested on: HS 578T breast
PC-3 prostate = tested on: PC-3 prostate
SN12C renal = tested on: SN12C renal
A549 NSCLC = tested on: A549 NSCLC
OVCAR-3 ovarian = tested on: OVCAR-3 ovarian
HOP-92 NSCLC = tested on: HOP-92 NSCLC
HT29 colon = tested on: HT29 colon
SR leukemia = tested on: SR leukemia
OVCAR-4 ovarian = tested on: OVCAR-4 ovarian
COLO 205 colon = tested on: COLO 205 colon
SK-MEL-2 melanoma = tested on: SK-MEL-2 melanoma
DU-145 prostate = tested on: DU-145 prostate
HL-60(TB) leukemia = tested on: HL-60(TB) leukemia
NCI-H460 lung = tested on: NCI-H460 lung
HOP-62 NSCLC = tested on: HOP-62 NSCLC
SK-OV-3 ovarian = tested on: SK-OV-3 ovarian
BT-549 breast = tested on: BT-549 breast
CCRF-CEM leukemia = tested on: CCRF-CEM leukemia
SF-268 CNS = tested on: SF-268 CNS
OVCAR-8 ovarian = tested on: OVCAR-8 ovarian
TK-10 renal = tested on: TK-10 renal
K-562 leukemia = tested on: K-562 leukemia
EKVX NSCLC = tested on: EKVX NSCLC
UACC-257 melanoma = tested on: UACC-257 melanoma
MDA-MB-435 = tested on: MDA-MB-435
UACC-62 melanoma = tested on: UACC-62 melanoma
MOLT-4 leukemia = tested on: MOLT-4 leukemia
M14 melanoma = tested on: M14 melanoma
ACHN renal = tested on: ACHN renal

**Q.** What does the source list for `COc1cc(NC2CCCCC2O)c2nc(-c3ccc(Cl)cc3)ccc2c1` (stereo unspecified)?
**A.** GI50 (MCF7 breast): 0.358 µM; TGI (MCF7 breast): 35.5 µM; GI50 (HCT-116 colon): 12.9 µM; TGI (HCT-116 colon): > 100 µM; GI50 (HCC-2998 colon): 13.4 µM; TGI (HCC-2998 colon): > 100 µM; GI50 (SF-539 CNS): 10.5 µM; TGI (SF-539 CNS): 51.4 µM; GI50 (NCI/ADR-RES ovarian): 6.1 µM; TGI (NCI/ADR-RES ovarian): > 100 µM; GI50 (OVCAR-5 ovarian): 19.1 µM; TGI (OVCAR-5 ovarian): > 100 µM; GI50 (SNB-75 CNS): 5.04 µM; TGI (SNB-75 CNS): 59.1 µM; GI50 (SF-295 CNS): 2.8 µM; TGI (SF-295 CNS): 12.1 µM; GI50 (NCI-H23 lung): 6.15 µM; TGI (NCI-H23 lung): 61.7 µM; GI50 (RXF 393 renal): 2.78 µM; TGI (RXF 393 renal): 4.58 µM; GI50 (RPMI-8226 leukemia): 3.66 µM; TGI (RPMI-8226 leukemia): 25 µM; GI50 (LOX IMVI melanoma): 5.95 µM; TGI (LOX IMVI melanoma): 30.9 µM; GI50 (786-0 renal): 5.23 µM; TGI (786-0 renal): 18.6 µM; GI50 (SK-MEL-5 melanoma): 10.6 µM; TGI (SK-MEL-5 melanoma): 23.1 µM; GI50 (CAKI-1 renal): 4.73 µM; TGI (CAKI-1 renal): 63.2 µM; GI50 (IGROV1 ovarian): 24.6 µM; TGI (IGROV1 ovarian): > 100 µM; GI50 (SW-620 colon): 7.52 µM; TGI (SW-620 colon): 46.7 µM; GI50 (MALME-3M melanoma): 7.45 µM; TGI (MALME-3M melanoma): 28 µM; GI50 (UO-31 renal): 6.31 µM; TGI (UO-31 renal): 88.5 µM; GI50 (U251 CNS): 3.88 µM; TGI (U251 CNS): > 100 µM; GI50 (MDA-MB-231 breast): 4.43 µM; TGI (MDA-MB-231 breast): 57.8 µM; GI50 (NCI-H522 lung): 4.83 µM; TGI (NCI-H522 lung): > 100 µM; GI50 (A498 renal): 6.66 µM; TGI (A498 renal): 34.8 µM; GI50 (HCT-15 colon): 2.94 µM; TGI (HCT-15 colon): 22.4 µM; GI50 (NCI-H226 lung): 18.6 µM; TGI (NCI-H226 lung): > 100 µM; GI50 (SK-MEL-28 melanoma): 14.4 µM; TGI (SK-MEL-28 melanoma): > 100 µM; GI50 (T-47D breast): 4.9 µM; TGI (T-47D breast): > 100 µM; GI50 (SNB-19 CNS): 21.7 µM; TGI (SNB-19 CNS): > 100 µM; GI50 (KM12 colon): 3.82 µM; TGI (KM12 colon): 29.2 µM; GI50 (HS 578T breast): 2.88 µM; TGI (HS 578T breast): 13.2 µM; GI50 (PC-3 prostate): 4.87 µM; TGI (PC-3 prostate): > 100 µM; GI50 (SN12C renal): 9.96 µM; TGI (SN12C renal): 53.1 µM; GI50 (A549 NSCLC): 6.05 µM; TGI (A549 NSCLC): > 100 µM; GI50 (OVCAR-3 ovarian): 10.5 µM; TGI (OVCAR-3 ovarian): 32.8 µM; GI50 (HOP-92 NSCLC): 18.7 µM; TGI (HOP-92 NSCLC): 88.3 µM; GI50 (HT29 colon): 4.29 µM; TGI (HT29 colon): 23.8 µM; GI50 (SR leukemia): 3.26 µM; TGI (SR leukemia): 32.8 µM; GI50 (OVCAR-4 ovarian): 10.1 µM; TGI (OVCAR-4 ovarian): > 100 µM; GI50 (COLO 205 colon): 6.87 µM; TGI (COLO 205 colon): 20.7 µM; GI50 (SK-MEL-2 melanoma): 12.5 µM; TGI (SK-MEL-2 melanoma): 59.3 µM; GI50 (DU-145 prostate): 12.7 µM; TGI (DU-145 prostate): 58 µM; GI50 (HL-60(TB) leukemia): 7.57 µM; TGI (HL-60(TB) leukemia): 63 µM; GI50 (NCI-H460 lung): 3.35 µM; TGI (NCI-H460 lung): 12.3 µM; GI50 (HOP-62 NSCLC): 5.96 µM; TGI (HOP-62 NSCLC): 46.7 µM; GI50 (SK-OV-3 ovarian): 33.5 µM; TGI (SK-OV-3 ovarian): > 100 µM; GI50 (BT-549 breast): 40.7 µM; TGI (BT-549 breast): > 100 µM; GI50 (CCRF-CEM leukemia): 4.34 µM; TGI (CCRF-CEM leukemia): 68.5 µM; GI50 (SF-268 CNS): 9.68 µM; TGI (SF-268 CNS): > 100 µM; GI50 (OVCAR-8 ovarian): 12.2 µM; TGI (OVCAR-8 ovarian): > 100 µM; GI50 (TK-10 renal): 14.6 µM; TGI (TK-10 renal): > 100 µM; GI50 (K-562 leukemia): 2.82 µM; TGI (K-562 leukemia): 18.4 µM; GI50 (EKVX NSCLC): 18.1 µM; TGI (EKVX NSCLC): > 100 µM; GI50 (UACC-257 melanoma): 12.2 µM; TGI (UACC-257 melanoma): > 100 µM; GI50 (MDA-MB-435): 4.22 µM; TGI (MDA-MB-435): 16.6 µM; GI50 (UACC-62 melanoma): 11.1 µM; TGI (UACC-62 melanoma): 40.6 µM; GI50 (MOLT-4 leukemia): 3 µM; TGI (MOLT-4 leukemia): 46.6 µM; GI50 (M14 melanoma): 9.23 µM; TGI (M14 melanoma): 33.9 µM; GI50 (ACHN renal): 8.94 µM; TGI (ACHN renal): > 100 µM
